In patent US11932658B2 (BRISTOL-MYERS SQUIBB COMPANY, priority 2016, dated 2024):

target: T1, PAR4 (Homo sapiens, UniProt Q96RI0); test: PAR4 FLIPR assay (antagonism of agonist peptide-induced calcium mobilization); format: cell-based
T1 construct: expressed in transfected cells; host or cells: HEK293 PAR4 Clone 1.2A (BMS Arctic ID 383940)
T1 sequence (Q96RI0 18-385): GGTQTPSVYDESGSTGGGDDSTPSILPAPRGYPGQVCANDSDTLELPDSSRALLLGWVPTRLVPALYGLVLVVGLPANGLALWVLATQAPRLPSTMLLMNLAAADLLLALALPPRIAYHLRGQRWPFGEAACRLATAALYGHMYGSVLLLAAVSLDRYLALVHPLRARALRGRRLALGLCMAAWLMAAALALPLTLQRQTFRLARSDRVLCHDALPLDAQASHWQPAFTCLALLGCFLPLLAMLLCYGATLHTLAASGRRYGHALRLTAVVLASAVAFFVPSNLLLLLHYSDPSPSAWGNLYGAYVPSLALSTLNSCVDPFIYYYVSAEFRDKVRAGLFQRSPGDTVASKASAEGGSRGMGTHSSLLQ
From the text: The FLIPR assay is an exemplary in vitro assay for measuring the activity of the PAR4 antagonists of the present invention. In this assay, intracellular calcium mobilization is induced in PAR4 expressing cells by a PAR4 agonist and calcium mobilization is monitored.
HEK293 cells stably expressing PAR4 were generated by a standard method of transfection of human PAR4 (F2R23) cDNA expression vector and selected based on PAR4 protein expression or mRNA expression. […] These cells also express endogenous PAR1 and can elicit calcium signal upon stimulation with PAR1 agonist peptide. Therefore, the same cells were also used to determine selectivity against PAR1 and agonist activity for both receptors. Cells from HEK293 PAR4 Clone 1.2A (BMS Arctic ID 383940) were propagated and used for calcium mobilization studies.
FLIPR-based calcium mobilization assay in HEK293 cells was used to measure PAR4 antagonism, agonism, and selectivity against PAR1. The activity of the PAR4 antagonists of the present invention were tested in PAR4 expressing cells by monitoring H-Ala-Phe(4-F)-Pro-Gly-Trp-Leu-Val-Lys-Asn-Gy-NH2-induced intracellular calcium mobilization. Counter screens for agonist activity and PAR1 antagonist activity were also performed. Briefly, PAR1/PAR4-expressing HEK293 cells were grown in DMEM (Life Technology, Grand Island, NY) containing 10% heat-inactivated FBS, 1% Penicillin-Streptomycin, 10 μg/mL blasticidin, and 100 μg/mL Zeocin at 37° C. with 5% CO2. Cells were plated overnight prior to the experiment in a black 384-well Purecoat Amine clear bottom plate (Becton Dickinson Biosciences, San Jose, CA) at 10,000 cells/well in 30 μL growth medium and incubated in a humidified chamber at 37° C. with 5% CO2 overnight. Prior to compound addition, the cell medium was replaced with 40 μL of 1× calcium and magnesium-containing Hank's Balanced Saline Solution (HBSS) (with 20 mM HEPES) and 1:1000 diluted fluorescent calcium indicator (Codex Biosolutions, Gaithersburg, MD). After a 30 minute incubation period at 37° C. and a further 30 minute incubation and equilibration period at room temperature, 20 μL test compound (diluted in 1×HBSS buffer) was added at various concentrations at 0.17% dimethyl sulfoxide (DMSO) final concentration. Changes in fluorescence intensity were measured using a Functional Drug Screening System (FDSS, Hamamatsu, Japan) to determine agonist activities. The cells were then incubated for 30 minutes at room temperature followed by addition of 20 μL of agonist peptide for antagonist activity measurement. […] Compound potency was derived from 11-point concentration-response curves.

SMILES	IC50
COc1cnc2c(-c3nc4c(C)cc5c(c4s3)OCC(COC(=O)Oc3cccnc3)O5)cc(C)cc2n1 (stereo not shown) [Example 6, (2-(2-methoxy-7-methylquinoxalin-5-yl)-4-methyl-7,8-dihydro-[1,4]dioxino[2′,3′:3,4]benzo[1,2-d]thiazol-7-yl)methyl pyridin-3-yl carbonate]	10 nM
COc1cnc2c(-c3cc4c5c(cc(Cl)c4o3)O[C@@H](COC(=O)Nc3ccc(C)nc3)CO5)cc(C)cc2n1 [Example 7, (R)-(6-chloro-8-(2-methoxy-7-methylquinoxalin-5-yl)-2,3-dihydro-[1,4]dioxino[2,3-e]benzofuran-3-yl)methyl (6-methylpyridin-3-yl)carbamate]	1 nM
COc1cnc2c(-c3cc4c5c(cc(Cl)c4o3)O[C@@H](COC(=O)Nc3ccnc(C)c3)CO5)cc(C)cc2n1 [Example 8, (R)-(6-chloro-8-(2-methoxy-7-methylquinoxalin-5-yl)-2,3-dihydro-[1,4]dioxino[2,3-e]benzofuran-3-yl)methyl (2-methylpyridin-4-yl)carbamate]	1.4 nM
COc1ccc(NC(=O)OC[C@H]2COc3c(cc(Cl)c4oc(-c5cc(C)cc6nc(OC)cnc56)cc34)O2)cn1 [Example 9, (R)-(6-chloro-8-(2-methoxy-7-methylquinoxalin-5-yl)-2,3-dihydro-[1,4]dioxino[2,3-e]benzofuran-3-yl)methyl (6-methoxypyridin-3-yl)carbamate]	1.8 nM
COc1cnc2c(-c3cc4c5c(cc(Cl)c4o3)O[C@@H](COC(=O)Nc3cccnc3)CO5)cc(C)cc2n1 [Example 10, (R)-(6-chloro-8-(2-methoxy-7-methylquinoxalin-5-yl)-2,3-dihydro-[1,4]dioxino[2,3-e]benzofuran-3-yl)methyl pyridin-3-ylcarbamate]	8.5 nM
COc1cnc2c(-c3cc4c5c(ccc4o3)O[C@@H](COC(=O)Nc3ccc(C)nc3)CO5)cc(C)cc2n1 [Example 11, (R)-(8-(2-methoxy-7-methylquinoxalin-5-yl)-2,3-dihydro-[1,4]dioxino[2,3-e]benzofuran-3-yl)methyl (6-methylpyridin-3-yl)carbamate]	1.3 nM
COc1cnc2c(-c3cc4c5c(ccc4o3)O[C@@H](COC(=O)Nc3ccnc(C)c3)CO5)cc(C)cc2n1 [Example 12, (R)-(8-(2-methoxy-7-methylquinoxalin-5-yl)-2,3-dihydro-[1,4]dioxino[2,3-e]benzofuran-3-yl)methyl (2-methylpyridin-4-yl)carbamate]	3.8 nM
COc1ccc(NC(=O)OC[C@H]2COc3c(ccc4oc(-c5cc(C)cc6nc(OC)cnc56)cc34)O2)cn1 [Example 13, (R)-(8-(2-methoxy-7-methylquinoxalin-5-yl)-2,3-dihydro-[1,4]dioxino[2,3-e]benzofuran-3-yl)methyl (6-methoxypyridin-3-yl)carbamate]	1.2 nM
COc1cnc2c(-c3cc4c5c(cc(C)c4o3)O[C@@H](COC(=O)Nc3ccc(C)nc3)CO5)cc(C)cc2n1 [Example 14, (R)-(8-(2-methoxy-7-methylquinoxalin-5-yl)-6-methyl-2,3-dihydro-[1,4]dioxino[2,3-e]benzofuran-3-yl)methyl (6-methylpyridin-3-yl)carbamate]	2.9 nM
COc1cnc2c(-c3cc4c5c(cc(C)c4o3)O[C@@H](COC(=O)Nc3ccnc(C)c3)CO5)cc(C)cc2n1 [Example 15, (R)-(8-(2-methoxy-7-methylquinoxalin-5-yl)-6-methyl-2,3-dihydro-[1,4]dioxino[2,3-e]benzofuran-3-yl)methyl (2-methylpyridin-4-yl)carbamate]	3.2 nM
COc1ccc(NC(=O)OC[C@H]2COc3c(cc(C)c4oc(-c5cc(C)cc6nc(OC)cnc56)cc34)O2)cn1 [Example 16, (R)-(8-(2-methoxy-7-methylquinoxalin-5-yl)-6-methyl-2,3-dihydro-[1,4]dioxino[2,3-e]benzofuran-3-yl)methyl (6-methoxypyridin-3-yl)carbamate]	3 nM
COc1ccc(NC(=O)OCC2Cc3c(cc(Cl)c4nc(-c5cc(C)cc6nc(OC)cnc56)sc34)O2)cn1 (stereo not shown) [Example 17, (4-chloro-2-(2-methoxy-7-methylquinoxalin-5-yl)-7,8-dihydrobenzofuro[5,4-d]thiazol-7-yl)methyl (6-methoxypyridin-3-yl)carbamate]	3.1 nM
COc1cnc2c(-c3nc4c(Cl)cc5c(c4s3)CC(COC(=O)Nc3cccnc3)O5)cc(C)cc2n1 (stereo not shown) [Example 18, (4-chloro-2-(2-methoxy-7-methylquinoxalin-5-yl)-7,8-dihydrobenzofuro[5,4-d]thiazol-7-yl)methyl pyridin-3-ylcarbamate]	5.7 nM
COc1cnc2c(-c3nc4c(Cl)cc5c(c4s3)CC(COC(=O)Nc3ccc(C)nc3)O5)cc(C)cc2n1 (stereo not shown) [Example 19, (4-chloro-2-(2-methoxy-7-methylquinoxalin-5-yl)-7,8-dihydrobenzofuro[5,4-d]thiazol-7-yl)methyl (6-methylpyridin-3-yl)carbamate]	2.6 nM
Cc1cc(-c2nc3c(F)cc4c(c3s2)OCC(CNC(=O)OC(C)(C)C)O4)c2ncc(OC(F)F)nc2c1 (stereo not shown) [Example 21, tert-butyl ((2-(2-(difluoromethoxy)-7-methylquinoxalin-5-yl)-4-fluoro-7,8-dihydro-[1,4]dioxino[2′,3′:3,4]benzo[1,2-d]thiazol-7-yl)methyl)carbamate]	10 nM
Cc1cc(-c2nc3c(F)cc4c(c3s2)OC(CO)CO4)c2ncc(OC(F)F)nc2c1 (stereo not shown) [Example 22, (2-(2-(difluoromethoxy)-7-methylquinoxalin-5-yl)-4-fluoro-7,8-dihydro-[1,4]dioxino[2′,3′:3,4]benzo[1,2-d]thiazol-8-yl)methanol]	8.8 nM
Cc1cc(-c2nc3c(F)cc4c(c3s2)OC(CNC(=O)OC(C)(C)C)CO4)c2ncc(OC(F)F)nc2c1 (stereo not shown) [Example 23, tert-butyl ((2-(2-(difluoromethoxy)-7-methylquinoxalin-5-yl)-4-fluoro-7,8-dihydro-[1,4]dioxino[2′,3′:3,4]benzo[1,2-d]thiazol-8-yl)methyl)carbamate]	9.4 nM
COc1cnc2c(-c3nc4c(F)cc5c(c4s3)OC(COC(=O)Nc3ccccc3)CO5)cc(C)cc2n1 (stereo not shown) [Example 24, (4-fluoro-2-(2-methoxy-7-methylquinoxalin-5-yl)-7,8-dihydro-[1,4]dioxino[2′,3′:3,4]benzo[1,2-d]thiazol-8-yl)methyl phenylcarbamate]	9 nM
COc1cnc2c(-c3nc4c(Cl)cc5c(c4s3)OC[C@H](COC(=O)Nc3cncc(Cl)c3)O5)cc(C)cc2n1 [Example 25, (R)-(4-chloro-2-(2-methoxy-7-methylquinoxalin-5-yl)-7,8-dihydro-[1,4]dioxino[2′,3′:3,4]benzo[1,2-d]thiazol-7-yl)methyl (5-chloropyridin-3-yl)carbamate]	25 nM
COc1cnc2c(-c3nc4c(Cl)cc5c(c4s3)OC[C@H](COC(=O)Nc3ccccc3)O5)cc(C)cc2n1 [Example 26, (R)-(4-chloro-2-(2-methoxy-7-methylquinoxalin-5-yl)-7,8-dihydro-[1,4]dioxino[2′,3′:3,4]benzo[1,2-d]thiazol-7-yl)methyl phenylcarbamate]	10 nM
COc1cnc2c(-c3nc4c(Cl)cc5c(c4s3)OC[C@H](COC(=O)Nc3cccc(C#N)c3)O5)cc(C)cc2n1 [Example 27, (R)-(4-chloro-2-(2-methoxy-7-methylquinoxalin-5-yl)-7,8-dihydro-[1,4]dioxino[2′,3′:3,4]benzo[1,2-d]thiazol-7-yl)methyl (3-cyanophenyl)carbamate]	2.2 nM
COc1cnc2c(-c3nc4c(Cl)cc5c(c4s3)OC[C@H](COC(=O)Nc3cncc(F)c3)O5)cc(C)cc2n1 [Example 28, (R)-(4-chloro-2-(2-methoxy-7-methylquinoxalin-5-yl)-7,8-dihydro-[1,4]dioxino[2′,3′:3,4]benzo[1,2-d]thiazol-7-yl)methyl (5-fluoropyridin-3-yl)carbamate]	480 nM
